Assays:
Assay in all cases: Rescue concentration, modified checkerboard MIC adjuvant assay
Assay type in all cases: cell-based
[1] = tested on: Staphylococcus aureus ATCC BAA-2312; settings: S. aureus ATCC BAA-2312
Procedure, shortened: (§1)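 Twofold dilution series of test compound combined with a fixed antibiotic at its CLSI M100 susceptible breakpoint, only for antibiotics the strain resists. Inoculum 10^6 CFU/ml in ca-MHB, 35° C., 24 h aerobic. Rescue concentration: lowest compound level giving 99.99% growth reduction by visual read.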

[2] = tested on: Acinetobacter baumannii clinical isolate 9978; settings: A. baumannii clinical isolate 9978
Procedure, shortened: as §1

[3] = tested on: Pseudomonas aeruginosa MDR 5805; settings: P. aeruginosa MDR 5805
Procedure, shortened: as §1

[4] = tested on: Enterobacter cloacae ATCC BAA-1143; settings: E. cloacae ATCC BAA-1143
Procedure, shortened: as §1

[5] = tested on: Escherichia coli ATCC 35150; settings: E. coli ATCC 35150
Procedure, shortened: as §1

[6] = tested on: Enterococcus faecalis ATCC 51299; settings: E. faecalis ATCC 51299
Procedure, shortened: as §1

[7] = tested on: Klebsiella pneumoniae ATCC 49472; settings: K. pneumoniae ATCC 49472
Procedure, shortened: as §1

[8] = tested on: Streptococcus pneumoniae ATCC 49619; settings: S. pneumoniae ATCC 49619
[9] = tested on: Klebsiella pneumoniae ATCC BAA-2814; settings: K. pneumoniae ATCC BAA-2814
Procedure, shortened: as §1

[10] = Gen at susceptible breakpoint 4 μg mL^−1
[11] = Tri at susceptible breakpoint 8 μg mL^−1
[12] = Amox at susceptible breakpoint 8 μg mL^−1
[13] = Col at susceptible breakpoint 2 μg mL^−1
[14] = Imi at susceptible breakpoint 2 μg mL^−1
[15] = Mero at susceptible breakpoint 2 μg mL^−1
[16] = Pol B at susceptible breakpoint 2 μg mL^−1
[17] = Amp at susceptible breakpoint 8 μg mL^−1
[18] = Azi at susceptible breakpoint 16 μg mL^−1
[19] = Ceph at susceptible breakpoint 8 μg mL^−1
[20] = Chl at susceptible breakpoint 8 μg mL^−1
[21] = Col at susceptible breakpoint 8 μg mL^−1
[22] = Dox at susceptible breakpoint 4 μg mL^−1
[23] = Imi at susceptible breakpoint 1 μg mL^−1
[24] = Tet at susceptible breakpoint 4 μg mL^−1

Oc1ccc(C(c2c[nH]c3cnccc23)c2c[nH]c3cnccc23)cc1 [SP-6azaBIM 136, 4-(bis(1H-pyrrolo[2,3-c]pyridin-3-yl)methyl)phenol]
Rescue concentration, Azi (2) ([1]; Azi at susceptible breakpoint 2 μg mL^−1): >128 µg/mL | Rescue concentration, Gen (4) [1, 10]: >128 µg/mL | Rescue concentration, Pen (0.12) ([1]; Pen at susceptible breakpoint 0.12 μg mL^−1): >128 µg/mL | Rescue concentration, Tri (8) [1, 11]: >128 µg/mL | Rescue concentration, Van (2) ([1]; Van at susceptible breakpoint 2 μg mL^−1): 128 µg/mL | Rescue concentration, Amox (8) [2, 12]: 16 µg/mL | Rescue concentration, Cef (8) ([2]; Cef at susceptible breakpoint 8 μg mL^−1): 32 µg/mL | Rescue concentration, Col (2) [2, 13]: 64 µg/mL | Rescue concentration, Gen (4) [2, 10]: 16 µg/mL | Rescue concentration, Imi (2) [2, 14]: 2 µg/mL | Rescue concentration, Mero (2) [2, 15]: 32 µg/mL | Rescue concentration, Pol B (2) [2, 16]: 64 µg/mL | Rescue concentration, Amox (8) [3, 12]: 2 µg/mL | Rescue concentration, Col (2) [3, 13]: 4 µg/mL | Rescue concentration, Gen (4) [3, 10]: 4 µg/mL | Rescue concentration, Imi (2) [3, 14]: 2 µg/mL | Rescue concentration, Mero (2) [3, 15]: 2 µg/mL | Rescue concentration, Pol B (2) [3, 16]: 4 µg/mL | Rescue concentration, Amp (8) [4, 17]: 16 µg/mL | Rescue concentration, Azi (16) [4, 18]: 16 µg/mL | Rescue concentration, Ceph (8) [4, 19]: 16 µg/mL | Rescue concentration, Chl (8) [4, 20]: 32 µg/mL | Rescue concentration, Col (8) [4, 21]: 16 µg/mL | Rescue concentration, Dox (4) [4, 22]: 4 µg/mL | Rescue concentration, Gen (4) [4, 10]: 8 µg/mL | Rescue concentration, Imi (1) [4, 23]: 4 µg/mL | Rescue concentration, Tet (4) [4, 24]: 4 µg/mL | Rescue concentration, Amp (8) [5, 17]: 8 µg/mL | Rescue concentration, Cip (0.25) ([5]; Cip at susceptible breakpoint 0.25 μg mL^−1): 16 µg/mL | Rescue concentration, Dox (4) [5, 22]: 4 µg/mL | Rescue concentration, Imi (1) [5, 23]: 4 µg/mL | Rescue concentration, Amp (8) [6, 17]: >128 µg/mL | Rescue concentration, Chl (8) [6, 20]: >128 µg/mL | Rescue concentration, Dox (4) [6, 22]: >128 µg/mL | Rescue concentration, Ery (0.5) ([6]; Ery at susceptible breakpoint 0.5 μg mL^−1): >128 µg/mL | Rescue concentration, Tri (8) [6, 11]: >128 µg/mL | Rescue concentration, Van (4) ([6]; Van at susceptible breakpoint 4 μg mL^−1): >128 µg/mL | Rescue concentration, Amox (8) [7, 12]: 32 µg/mL | Rescue concentration, Amp (8) [7, 17]: 64 µg/mL | Rescue concentration, Col (8) [7, 21]: 32 µg/mL | Rescue concentration, Imi (1) [7, 23]: 16 µg/mL | Rescue concentration, Mero (1) ([7]; Mero at susceptible breakpoint 1 μg mL^−1): 32 µg/mL | Rescue concentration, Pol B (8) ([7]; Pol B at susceptible breakpoint 8 μg mL^−1): 16 µg/mL | Rescue concentration, Amox (2) ([8]; Amox at susceptible breakpoint 2 μg mL^−1): >128 µg/mL | Rescue concentration, Ery (0.25) ([8]; Ery at susceptible breakpoint 0.25 μg mL^−1): >128 µg/mL | Rescue concentration, Imi (0.12) ([8]; Imi at susceptible breakpoint 0.12 μg mL^−1): >128 µg/mL | Rescue concentration, Amox (8) [9, 12]: 16 µg/mL | Rescue concentration, Amp (8) [9, 17]: 32 µg/mL | Rescue concentration, Aze (4) ([9]; Aze at susceptible breakpoint 4 μg mL^−1): 4 µg/mL | Rescue concentration, Azi (16) [9, 18]: 16 µg/mL | Rescue concentration, Cef (16) ([9]; Cef at susceptible breakpoint 16 μg mL^−1): 8 µg/mL | Rescue concentration, Ceph (8) [9, 19]: 16 µg/mL | Rescue concentration, Chl (8) [9, 20]: 32 µg/mL | Rescue concentration, Col (8) [9, 21]: 16 µg/mL | Rescue concentration, Dox (4) [9, 22]: 4 µg/mL | Rescue concentration, Gen (4) [9, 10]: 4 µg/mL | Rescue concentration, Imi (1) [9, 23]: 4 µg/mL | Rescue concentration, Tet (4) [9, 24]: 4 µg/mL

Reference: patent US20230382926A1, “COMPOUNDS AND USES THEREOF” (The University of The West Indies, priority 2022, published 2023)
